Where two headings read alike, the source gives them in different places.
How the values were obtained:
MALT1 = MALT1 (Canis lupus familiaris, UniProt A0A8I3RR14); experiment: cell-based
Description: Human whole blood was obtained from healthy volunteers by venipuncture at the Novartis Basle Health care unit. Blood was pooled into two 50 ml Falcon tubes and filtered using a 100 μm (or 70 μm)-cell strainer. Serial dilutions of compounds (10 mM DMSO stock) were diluted again 1/10 in X-VIVO medium (Lonza Biosciences) and 500 μl of whole blood was mixed with 55 μl of X-VIVO/compound mixes and pre-incubated for 1 h at 37°C with shaking (∼600 rpm). After the pre-incubation time 200 μl of the blood/compound mixes in duplicates were transferred to a new flat bottom plates and PMA (final: 100 ng/ml)/anti-CD28 (final: 300 ng/ml) solution was added. Incubation was performed overnight at 37°C + 5% CO2. Blood plates were spun for 10 min at 470 g and 100 μl of the resulting serum was analyzed for IL-2 levels using MesoScale Discovery kits (MSD), according to the manufacturer’s protocol. […] Similar protocols were implemented for PBMC and blood from rat and dog species.

female Lewis rat = settings: in vivo, 10 mg/kg
Description: Freund’s incomplete adjuvant (IFA, Difco, Detroit, United States) was mixed with porcine collagen type II (Chondrex, Redmond, United States) using a polytron on ice. The final solution consisted of 200 μg of collagen in 200 μl of IFA. […] of this was injected intradermally (i.d.) into the base of the tail of an isofluorane narcotized female Lewis rat. After 7 days, the isofluorane narcotized animal was boosted i.d. with a fresh batch of the immunization solution in an adjacent site at the base of the tail (100 μg in 100 μl). Paw swelling and body weight were taken three times per week as described below.
There were 10 animals per group for the compound treated groups and n = 9 rats for the vehicle group. […] Hind paws were taken for histological analysis.
There were five animals per group.
All animal studies were performed according to current Swiss animal protection laws, issued by the Cantonal Veterinary Office Basel-Stadt, Switzerland. Body weight of the animals was assessed regularly throughout the study. Mean values of groups were calculated. Scoring of the paw swelling was done on an arbitrary scale of 0–12 per rat, evaluating each hind paw in the front with 0–3 and in the ankle with 0–3, thus obtaining a maximal score of 6 per paw. The paw scores were summed up to obtain a score for each individual animal. The individual sum scores of all the animals were averaged and SEMs were calculated. The scoring system used was: 0 = no detectable sign of inflammation; 1, light swollen region; 2, more obviously swollen region; 3, ankylosis or severely swollen region.
Serum obtained at the end of the study, was diluted 1:10000 and 1: 100000.
Three-μm thick sections were stained with Giemsa and Safranin O (prophylactic setting) or hematoxylin and eosin (therapeutic setting).
Histopathological changes were blindly scored on a scale of 0 (normal) to 3 (severe changes). Following parameters were assessed: inflammatory cell infiltrates, joint damage and proteoglycan loss ([44]).

Foxp3+ Treg cells = experiment: Treg frequency and functional markers in mice treated 12 days; type: in vivo, C57BL/6 mice; settings: 8 mg/kg BID i.p. or 16 mg/kg QD i.p.
Description: Eight-week-old C57BL/6 mice (Charles River France) were treated from day 0 to day 12, either via p.o. […] (mepazine) dosing. Mepazine acetate (Chembridge, San Diego, CA, United States) was solubilized and dosed in PEG200/water (30/70 v/v). […] Some animals were euthanized at the end of the treatment period for analysis of lymphoid organs, while other animals were kept until day 19 to analyze the recovery of Treg cells after cessation of the treatment. […] Blood samples were collected along the treatment and recovery period to monitor changes in Tregs levels over time. Treg frequencies in blood and spleen as well as the expression of CTLA-4, TNFR2, KLRG1, and CD25 on Tregs was assessed by flow cytometry (see below). All animal studies were performed in accordance with the animal experimentation laws and guidelines laid down by the Swiss Federal and Cantonal Authorities. […] Splenocytes were analyzed at scheduled necropsies. […] CTLA-4 expression was assessed intra- and extracellularly.

[1] = blood compound concentrations in mice; type: in vivo, C57BL/6 mice; settings: mouse; for concentration at 1 h: C57BL/6, blood, ip, read-out: [Mepazine] blood at 1h (peak); for [Mepazine] blood at 15h (trough): BQL: below quantification limit

Chain of MALT1 (A0A8I3RR14 1-857): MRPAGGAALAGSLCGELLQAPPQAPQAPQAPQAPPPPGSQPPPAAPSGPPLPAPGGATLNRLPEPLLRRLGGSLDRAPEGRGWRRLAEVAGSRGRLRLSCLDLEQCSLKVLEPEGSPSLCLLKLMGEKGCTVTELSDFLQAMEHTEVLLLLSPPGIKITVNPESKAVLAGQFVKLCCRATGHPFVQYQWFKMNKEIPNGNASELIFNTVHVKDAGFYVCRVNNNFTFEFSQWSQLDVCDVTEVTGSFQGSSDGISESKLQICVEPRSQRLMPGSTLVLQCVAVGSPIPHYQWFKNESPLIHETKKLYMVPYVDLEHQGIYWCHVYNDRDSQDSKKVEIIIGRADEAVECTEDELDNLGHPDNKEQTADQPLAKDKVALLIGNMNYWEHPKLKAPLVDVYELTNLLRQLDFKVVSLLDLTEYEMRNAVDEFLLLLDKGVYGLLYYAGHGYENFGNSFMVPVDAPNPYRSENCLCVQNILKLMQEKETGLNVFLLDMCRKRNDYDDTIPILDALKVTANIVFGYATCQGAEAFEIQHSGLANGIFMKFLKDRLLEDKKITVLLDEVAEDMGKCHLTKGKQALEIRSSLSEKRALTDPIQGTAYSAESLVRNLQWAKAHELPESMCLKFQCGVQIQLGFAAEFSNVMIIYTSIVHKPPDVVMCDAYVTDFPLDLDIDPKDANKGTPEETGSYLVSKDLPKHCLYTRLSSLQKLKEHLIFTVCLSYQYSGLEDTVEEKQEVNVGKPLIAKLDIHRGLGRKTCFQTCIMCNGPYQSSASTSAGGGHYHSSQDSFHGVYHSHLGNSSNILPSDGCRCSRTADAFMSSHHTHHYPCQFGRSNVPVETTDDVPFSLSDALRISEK

| Structure (SMILES) | IC50 (MALT1) | histo-pathological score of hind paw: Inflammation (female Lewis rat) | histo-pathological score of hind paw: Joint damage (female Lewis rat) | histo-pathological score of hind paw: Proteoglycan loss (female Lewis rat) | anti-collagen antibody production (female Lewis rat; po) | joint histology scores (female Lewis rat; po) | paw swelling (female Lewis rat; po) | expression of Treg activation markers (Foxp3+ Treg cells) | frequency of Treg cells (Foxp3+ Treg cells) | concentration at 1 h ([1]; 8 mg/kg BID i.p.) | concentration at 1 h ([1]; 16 mg/kg QD i.p.) | [Mepazine] blood at 15h (trough) ([1]; 8 mg/kg BID i.p.) | [Mepazine] blood at 15h (trough) ([1]; 16 mg/kg QD i.p.) |
| --- | --- | --- | --- | --- | --- | --- | --- | --- | --- | --- | --- | --- | --- |
| CO[C@@H](C)c1c(NC(=O)Nc2ccnc(C(F)(F)F)c2)cnc2cc(Cl)nn12 [MLT-943] | 0.092 µM | 0 | 0 | 0 | suppressed | normalized | fully prevented |  |  |  |  |  |  |
| CN1CCCC(CN2c3ccccc3Sc3ccccc32)C1 (stereo not shown) [mepazine] |  |  |  |  |  |  |  | impacted neither | impacted neither | 0.27 µM | 0.77 µM | BQL | BQL |
